These results are taken from patent EP0821692B1, “IMMUNOPOTENTIATING INOSINE MONOPHOSPHATE 5'-NUCLEOTIDASE RESISTANT DERIVATIVES AND USES THEREOF” (UNIVERSITY OF SOUTH FLORIDA, priority 1995, dated 1996).

Data set [1] concerns 5'-nucleotidase. The settings on record: Crotalus atrox, pH 7.3.
The conditions of data set [2]: in vivo; cited from earlier work.

`Nc1ncnc2c1ncn2[C@@H]1O[C@H](COP(=O)(O)O)[C@@H](O)[C@H]1O` [Adenosine MP, adenosine-5'-monophosphate]: the “Hydrolysis (%)” value in data set [1] amounted to 86.0%. Consider isoprinosine, for which, in data set [2], the half-life entry is “less than four hours”.
